Drawing on patent US20200247812A1 (Integral Biosciences Private Limited, priority 2018, published 2020), this text covers IC50 for one compound.

The test system of one experiment is A549. Nature of the experiment: Cell viability assay (resazurin), A549. The conditions noted are these: Homo sapiens, 72-144 hr. It counts as cell-based. The method, then:
(§1) Different cell lines such as pancreatic, (MIA PaCa-2; ATCC®CRL-1420™ & and Panc-1; CRL-1469™), liver carcinoma (HepG2; ATCC® HB-8065™), lung epithelial carcinoma (A549; ATCC® CCL-185™) and others were seeded in their respective medium (DMEM, Cat #10569044, MEM, Cat #41090036; RPMI, Cat #22400089; all with 10% FBS, Gibco, ThermoFisher) at a cell count of 3000 cells per 100 μl per well in a 96 well edge plate (167425; ThermoFisher). Cells were allowed to grow at 37° C. for 24 hr in 5% CO2 (culture conditions) in a Nuaire incubator (humidified). Serially diluted compounds (100 μl) were added to the culture plate 24 hr later and the cultures were further incubated in culture conditions for specified time depending on doubling time of specific cell line (ranging from 72-144 hr). Experiment was terminated at the completion of incubation time with the drug by replacing the medium with 100 μl of 1 mM of resazurin (R7017; Sigma) prepared in respective culture medium and the plates were further incubated in culture conditions for 4 hr. Fluorescence was then measured using a multimodal plate reader (Biotek Synergy Neo) at an excitation wavelength of 535 nm and emission wavelength of 590 nm to obtain relative fluorescence units. Data analysis was done by subtracting the background fluorescence (only medium blank) value from each reading and then normalizing with the vehicle control (DMSO treated cells) to obtain percent survival/proliferation. Percent survival at different doses was used to calculate IC50 by fitting the curve to the “four-parameter variable slope logistic model” using Prism Graph Pad.

Another experiment has as its system 22Rv1. Nature of the experiment: Cell viability assay (resazurin), 22Rv1. The format is cell-based. The conditions noted are these: Homo sapiens, 72-144 hr. As for the experimental part:
as §1

The next experiment relates to Panc-1. Nature of the experiment: Cell viability assay (resazurin), Panc-1. The format is cell-based. The conditions noted are these: Homo sapiens, 72-144 hr. The method, then:
Different cell lines such as pancreatic, (MIA PaCa-2; ATCC®CRL-1420™ & and Panc-1; CRL-1469™), liver carcinoma (HepG2; ATCC® HB-8065™), lung epithelial carcinoma (A549; ATCC® CCL-185™) and others were seeded in their respective medium (DMEM, Cat #10569044, MEM, Cat #41090036; RPMI, Cat #22400089; all with 10% FBS, Gibco, ThermoFisher) at a cell count of 3000 cells per 100 μl per well in a 96 well edge plate (167425; ThermoFisher). Cells were allowed to grow at 37° C. for 24 hr in 5% CO2 (culture conditions) in a Nuaire incubator (humidified). Serially diluted compounds (100 μl) were added to the culture plate 24 hr later and the cultures were further incubated in culture conditions for specified time depending on doubling time of specific cell line (ranging from 72-144 hr). […] Fluorescence was then measured using a multimodal plate reader (Biotek Synergy Neo) at an excitation wavelength of 535 nm and emission wavelength of 590 nm to obtain relative fluorescence units. Data analysis was done by subtracting the background fluorescence (only medium blank) value from each reading and then normalizing with the vehicle control (DMSO treated cells) to obtain percent survival/proliferation. […]

A further experiment relates to human PBMC's. The experiment is described as follows: Viability in CD3e/CD28 activated human PBMC's (resazurin). The format is cell-based. The conditions noted are these: 72 hr. The method, then:
IC50 values of compounds for determining viability in CD3e/CD28 activated human PBMC's (hPBMC-34033, Cat # CC-2702; Lonza) cultured in LGM3 medium, Cat # CC #3211; Lonza). Human PBMC's (0.25×10^6 cells/well) were activated with Anti-human CD3e (0.5 μg/ml, coated overnight at 4° C.; Cat #16-0037-81, eBioscience) and then incubated with serial dilutions of compounds (3 fold, 8 point dose response starting at 30 μM) for 30 min at 37° C., 5% CO2 in an incubator (cell culture conditions) prior to treating them with Anti-human CD28 (0.25 μg/ml soluble; Cat #16-0289-81, eBiosciences). Human PBMC's were further incubated under cell culture conditions for 72 hr following which experiment was terminated by replacing the medium with 100 μl of 1 mM of resazurin (R7017; Sigma) prepared in culture medium and the plates were further incubated in culture conditions for 4 hr. Fluorescence was then measured using a multimodal plate reader (Biotek Synergy Neo) at an excitation wavelength of 535 nm and emission wavelength of 590 nm to obtain relative fluorescence units. Data analysis was done by subtracting the background fluorescence (only medium blank) value from each reading and then normalizing with the vehicle control (DMSO treated cells) to obtain percent survival/proliferation. Percent survival at different doses was used to calculate IC50 by fitting the curve to the “four-parameter variable slope logistic model” using Prism Graph Pad.

The next experiment deals with HepG2. Nature of the experiment: Cell viability assay (resazurin), HepG2. It counts as cell-based. As to conditions: Homo sapiens, 72-144 hr. The method, then: as §1
For orientation: The colour change of resazurin is a common sign of viable cells or microbes.

The test system of another experiment is MDA_MB-231. The experiment is described as follows: Cell viability assay (resazurin), MDA_MB-231. The format is cell-based. As to conditions: Homo sapiens, MDA-MB-231, 72-144 hr. As for the experimental part:
as §1

In the next experiment the test system is MCF7. The experiment is described as follows: Cell viability assay (resazurin), MCF7. It counts as cell-based. The conditions noted are these: Homo sapiens, 72-144 hr. As for the experimental part: as §1
In another experiment the test system is A427. Nature of the experiment: Cell viability assay (resazurin), A427. The format is cell-based. As to conditions: Homo sapiens, A-427, 72-144 hr. The method, then:
as §1

In another experiment the target is T1, ALK 5 (Homo sapiens, UniProt P36897).
T1 sequence (P36897 34-503): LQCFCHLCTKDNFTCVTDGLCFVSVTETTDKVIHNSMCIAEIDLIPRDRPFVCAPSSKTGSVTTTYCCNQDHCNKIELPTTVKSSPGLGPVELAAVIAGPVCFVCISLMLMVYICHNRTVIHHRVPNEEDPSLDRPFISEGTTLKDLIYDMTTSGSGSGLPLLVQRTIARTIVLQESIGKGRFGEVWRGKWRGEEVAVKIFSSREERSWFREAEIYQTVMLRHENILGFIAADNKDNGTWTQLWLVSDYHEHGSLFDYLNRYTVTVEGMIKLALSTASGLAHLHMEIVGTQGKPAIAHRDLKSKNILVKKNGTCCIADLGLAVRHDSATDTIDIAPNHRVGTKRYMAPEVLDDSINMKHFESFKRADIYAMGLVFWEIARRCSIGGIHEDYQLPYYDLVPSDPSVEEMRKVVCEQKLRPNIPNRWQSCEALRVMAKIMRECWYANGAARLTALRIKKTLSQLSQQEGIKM
The experiment is described as follows: In vitro kinase assay (ALK5 IC50, LanthaScreen Terbium labeled TR-FRET). The conditions noted are these: TGF-β kinase 6 nM, ATP 10 μM, read-out: Enzyme Activity ALK 5 IC50. It counts as biochemical. In short, it runs like this: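 LanthaScreen Tb TR-FRET: ALK5 (6 nM) preincubated 10 min with 3-fold diluted compounds, then 10 μM ATP and 200 nM fluorescent PolyGT substrate added for 1 h at room temperature. Stopped with EDTA/Tb antibody; 520/495 nm emission read. IC50 from four-parameter fit versus DMSO and no-enzyme controls.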
A general note: In TR-FRET formats the signal depends on donor and acceptor labels being close together.

The structures appear in SMILES notation. Some results are limits rather than exact numbers.

For orientation: IC50 means the midpoint of a concentration-inhibition curve. As for `CC(C)c1[nH]c(=O)c(-c2cc(Cl)ccc2F)cc1Nc1ccncc1C(N)=O` [Compound 1.43, 4-((5-(5-chloro-2-fluorophenyl)-2-isopropyl-6-oxo-1,6-dihydropyridin-3-yl)amino)nicotinamide], the IC50 in the experiment on A549, in the experiment with 22Rv1, with Panc-1, with human PBMC's, in the experiment with HepG2 and in the experiment with MDA_MB-231 was > 30 µM each time. Also, the IC50 in the experiment with MCF7 was > 10 µM; in the experiment on A427, > 30 µM; on ALK 5, ≤ 0.5 µM.
